Test results taken from patent US11406600B2, “Anhydrous dasatinib-containing preparation” (SAWAI PHARMACEUTICAL CO., LTD., priority 2017, dated 2022).

Assays:
[1] = Total related substances (%) by liquid chromatography after light irradiation; assay type: physicochemical; details: irradiated with 10000 Lux./hr of light for 5 days; peak area ratio, LC, 230 nm
Description: In the description, the purities of the anhydrous dasatinib were evaluated using liquid chromatography as an assessment of the stability. The ratio of the peak area of related substances derived from the anhydrous dasatinib to that of the anhydrous dasatinib was calculated to determine the total related substances (%).
(§1) In the anhydrous dasatinib-containing tablet having the film-coating part, the amount of the film-coating part and the percentage of the titanium oxide in the film-coating part were varied, respectively, and the color change (ΔE) and the total related substances (%) of the preparations irradiated with 10000 Lux./hr of light for 5 days were determined, respectively.
For the total related substances, the purities of the anhydrous dasatinib were evaluated using liquid chromatography as shown below. The ratio of the peak area of the related substances derived from the anhydrous dasatinib to that of the anhydrous dasatinib was calculated to determine the total related substances (%). Specifically, a column was octadecylsilated silica gels (particle size, 5 μm; column inner diameter, 4.6 mm; column length, 250 mm; GL Sciences), mobile phase A was 0.01 M aqueous potassium dihydrogen phosphate solution, mobile phase B was acetonitrile, and the detector was ultraviolet absorbance spectrophotometer (measured wavelength: 230 nm), respectively. […]

[2] = Color change (ΔE) after light irradiation, spectral color contrast meter; assay type: physicochemical; details: irradiated with 10000 Lux./hr of light for 5 days; based on color tone immediately after manufacturing; mean of 5 tablets
Description: Using a spectral color contrast meter (NIPPON DENSHOKU INDUSTRIES CO., LTD., Model: SE-6000), the color change ΔE value of the preparation irradiated with 10000Lux./hr of light for 5 days was measured based on the color tone of the preparation immediately after manufacturing, and the mean value of the measurement value of 5 tablets was calculated.
as §1
For color change, the ΔE value of the amount of color change was measured using a spectral color contrast meter (NIPPON DENSHOKU INDUSTRIES CO., LTD., Model: SE-6000) based on the color tone of the drug product immediately after manufacturing, and the mean value of the measured value of 5 tablets was calculated.

[3] = 1.2 million Lux.·hr total illumination and 200 W·hr/m^2 total near-ultraviolet radiation energy; cited from earlier work

In the case of `Cc1nc(Nc2ncc(C(=O)Nc3c(C)cccc3Cl)s2)cc(N2CCN(CCO)CC2)n1` [Comparative Example 1, anhydrous dasatinib], the “total related substances (%)” value [1] was 0.51% and the “color change ΔE value” [2] was 18.56.

In the case of `Cc1nc(Nc2ncc(C(=O)Nc3c(C)cccc3Cl)s2)cc(N2CCN(CCO)CC2)n1` [dasatinib hydrate], the “stability under light stress testing” value [3] is given as “no changes were observed”.
